Among the data in patent US4808586A, “Substituted benzimidazoles and benzothidiazoles having anti-asthmatic and/or anti-inflammatory activities” (American Cyanamid Company, priority 1987, dated 1989) are remaining activity and IC50 values, retold here.

In one test the target is T1, Neutrophil Lipoxygenase (Cavia porcellus, UniProt A0A286X958).
T1 construct: endogenous in cells; host or cells: guinea pig peritoneal neutrophils
T1 sequence (A0A286X958 1-674): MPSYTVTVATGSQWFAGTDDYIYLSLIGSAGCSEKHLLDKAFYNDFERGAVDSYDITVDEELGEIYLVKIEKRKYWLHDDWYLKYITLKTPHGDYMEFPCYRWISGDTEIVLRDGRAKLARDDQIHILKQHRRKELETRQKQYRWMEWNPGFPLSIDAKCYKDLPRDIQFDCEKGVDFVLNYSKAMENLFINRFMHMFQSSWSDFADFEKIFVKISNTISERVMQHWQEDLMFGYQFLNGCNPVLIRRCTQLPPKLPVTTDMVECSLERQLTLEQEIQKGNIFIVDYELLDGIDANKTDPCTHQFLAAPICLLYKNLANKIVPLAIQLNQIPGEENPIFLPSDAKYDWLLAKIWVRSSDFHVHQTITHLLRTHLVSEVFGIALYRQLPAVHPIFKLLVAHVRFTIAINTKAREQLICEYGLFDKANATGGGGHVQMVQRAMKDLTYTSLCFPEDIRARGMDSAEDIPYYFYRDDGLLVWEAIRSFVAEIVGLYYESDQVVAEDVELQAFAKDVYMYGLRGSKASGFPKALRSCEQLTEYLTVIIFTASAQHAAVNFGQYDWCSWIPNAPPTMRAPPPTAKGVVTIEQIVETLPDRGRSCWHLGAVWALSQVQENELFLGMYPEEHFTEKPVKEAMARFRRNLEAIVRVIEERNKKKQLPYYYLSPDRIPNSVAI
Put plainly: Inhibition of neutrophil lipoxygenase (release and biosynthesis of LTB4 and 5-HETE) in guinea pig peritoneal neutrophils. In kind it is cell-based. The settings on record: 10 μg/ml, 100 μM arachidonic acid and 20 μM A23187, the lower the percentage, the more active. On the procedure: The ability of these compounds to inhibit lipoxygenase activity in terms of the suppression of the release and biosynthesis of leukotriene B4 (LTB4) and 5-hydroxyeicosatetraenoic acid (5-HETE) was measured as follows.
In this assay 3×10^7 peritoneal neutrophils derived from guinea pigs were incubated at 37° C. in Dulbeccos buffer containing 50 mM tris buffer (pH 7.4). Five minutes before the addition of 100 μM arachidonic acid and 20 μM calcium ionophore (A23187), control vehicle or the test compounds were added to the neutrophils at a concentration of 10 μg/ml.
Three minutes after the addition of arachidonic acid and calcium ionophore the total lipid was partitioned into chloroform after adjusting the pH to 3 with citric acid and the addition of equal parts of methanol and chloro-form.
The 5-HETE and LTB4 were resolved by HPLC using a 5 μM, 4×25 cm octadecyl silica solumn (IBM Instruments) with 70-80% methanol in water adjusted to pH 3.0 with acetic acid. As the mobile phase was pumped at 1.0 ml/minute, LTB4 and 5-HETE were detected by absorbance at 270 and 236 nm, respectively.
LTB4 and 5-HETE were quantitated by comparison with the control and results were expressed as a percent of control.

In test [1] the test system is Immunologically Stimulated Human Basophils. As to the kind of experiment: Inhibition of histamine release from immunologically stimulated human basophils. In kind it is cell-based. The settings on record: 1 h; human basophils challenged with anti-IgE or antigen, 60 minutes at 37° C.; linear regression; active if ED50 ≤48 μM; read-out: ED50 (concentration which causes a 50% inhibition of histamine release). The method, then: The novel compounds of this invention have been tested by the procedure of Lichtenstein, L. M. and Osler, A. G., J. Exp. Med., 120, 507-530 (1964), which evaluates the ability of compounds to inhibit mediator (histamine) release from immunologically stimulated human basophils.
Dissolve 140.3 g of sodium chloride, 7.45 g of potassium chloride and 74.5 g of Trizma-Tris Pre-Set, Reagent Grade, pH 7.6, at 25° C. (Sigma Chemical Co.) in sufficient water to give a final volume of 2 liters.
(Sigma Chemical Co.) (30 mg/ml)
Made to 0.75M and 0.5M respectively, with calcium chloride dihydrate and magnesium chloride hexahydrate.
A 10 ml portion of 10X Tris Buffer and 1.0 ml of human albumin are diluted to 100 ml with water.
A 10 ml portion of 10X Tris Buffer, 1.0 ml of human albumin, 0.8 ml of calcium stock and 0.2 ml of magnesium stock are diluted to 100 ml with water.
Behring Diagnostics (Generally used at 10 μg protein/ml final concentration).
Strength 1:100 (w:v) allergenic extract, Hollister-Stier Labs. Generally this is diluted 1:1000 to 1:10,000 (considering the vial as stock).
Intradermal solutions or intramuscular preparations for hyposensitization, Hollister-Stier Labs. The final concentration used is on the order of 1 PNU/ml.
Eighty milliliters of blood is withdrawn from subjects with known histamine release to anti-Ige, rageweed antigen or other specific alergen, using four 20 ml heparainized tubes. This 80 ml of blood is mixed with 20 ml of saline containing 0.6 g of dextrose and 1.2 g of dextran. The blood is allowed to sediment at room temperature in two 50 ml polycarbonate centrifuge tubes until a sharp interface develops between the red cells and plasma (60-90 minutes). The plasma (top) layer from each tube is with-drawn by pipet and transferred to respective 50 ml polycarbonate tubes. The plasma is centrifuged for 8 minutes at 100×G at […]. The supernatant is carefully poured off as completely as possible and the cell button is resuspended in 2-3 ml of Tris-A buffer using a silconized Pasteur pipet. The resuspension is accomplished by drawing the liquid gently in an out of the pipet, with the tip below the liquid, until and even suspension of cells is obtained. Sufficient Tris-A buffer is then added to bring the volume in the tube to about 45 ml and the tube is centrifuged at 110×G for 8 minutes at 4° C. The supernatant is poured off and the cell button is resuspended and centrifuged as described above. The supernatant is poured off and the cell button suspended in 2-3 ml of Tris-ACM buffer to make the final volume sufficient to allow addition to the reaction tubes.
Reaction tubes containing anti-IgE or antigens, either alone or with test compound in a total volume of 0.2 ml are prepared and placed in a 37° C. bath. […]

Like-named read-outs stand apart in the source and are kept apart here.

Consider `O=C1C(Cl)=C(N2CCN(c3nc4ccccc4o3)CC2)C(=O)c2nsnc21` [5-[4-(2-Benzoxazolyl)-1-piperazinyl]-6-chloro-2,1,3-benzothiadiazole-4,7-dione], for which the remaining activity at 10 µg/mL at Neutrophil Lipoxygenase (read-out: 5-HETE, % of Control) was determined as 20.8%; on Neutrophil Lipoxygenase (read-out: LTB4, % of Control), 25.8%.
On the same counts, the results for `COc1ccc(OC)c2[nH]c(-c3ccc(Cl)cc3)nc12` [2-(4-Chlorophenyl)-4,7-dimethoxy-1H-benzimidazole] are 77% and 87%.
With `CCOC(=O)N1CCN(C2=C(Cl)C(=O)c3nsnc3C2=O)CC1` [4-(6-Chloro-4,7-dihydro-4,7-dioxo-2,1,3-benzothiadiazol-5-yl)-1-piperazinecarboxylic acid, ethyl ester], in test [1], the IC50 was found to be 1 µM. For the same molecule, the remaining activity at 10 µg/mL on Neutrophil Lipoxygenase (read-out: 5-HETE, % of Control) came to 40.5%; at Neutrophil Lipoxygenase (read-out: LTB4, % of Control), 39.3%.
Regarding `O=CN1CCN(C2=C(Cl)C(=O)c3nsnc3C2=O)CC1` [4-(6-Chloro-4,7-dihydro-4,7-dioxo-2,1,3-benzothiadiazol-5-yl)-1-piperazinecarboxaldehyde], the remaining activity at 10 µg/mL on Neutrophil Lipoxygenase (read-out: 5-HETE, % of Control) came to 64%; at Neutrophil Lipoxygenase (read-out: LTB4, % of Control), 90.8%.
As to `COc1ccc(OC)c2[nH]c(-c3ccccc3)nc12` [4,7-Dimethoxy-2-phenyl-1H-benzimidazole], the remaining activity at 10 µg/mL was determined as 78.2% at Neutrophil Lipoxygenase (read-out: 5-HETE, % of Control) and 8% on Neutrophil Lipoxygenase (read-out: LTB4, % of Control).
The corresponding values for `Oc1ccc(O)c2[nH]c(-c3ccccc3)nc12` [2-Phenyl-1 --H--benzimidazole-4,7-diol, 2-Phenyl-1H-benzimidazole-4,7-diol] are 32.1% and 33.9%.
Consider `O=C1C=CC(=O)c2[nH]c(-c3ccc(Cl)cc3)nc21` [2-(4-Chlorophenyl)-1H-benzimidazole-4,7-dione], for which the IC50 in test [1] worked out at 6.8 µM.
Regarding `O=C1C(Cl)=C(N2CCN(c3cccc(C(F)(F)F)c3)CC2)C(=O)c2nsnc21` [5-Chloro-6-6[4-[3-(trifluoromethyl)phenyl]-1-piperazinyl]-2,1,3-benzothiadiazole-4,7-dione], the IC50 in test [1] was 9.1 µM. Further, the remaining activity at 10 µg/mL at Neutrophil Lipoxygenase (read-out: 5-HETE, % of Control) amounted to 15.2%; on Neutrophil Lipoxygenase (read-out: LTB4, % of Control), 14.6%.
For `Oc1ccc(O)c2[nH]c(-c3ccc(Cl)cc3)nc12` [2-(4-Chlorophenyl)-1H-benzimidazole-4,7-diol], in test [1], the IC50 came out at 9.7 µM.
